Patent US20220281930A1, “COMPOSITIONS AND METHODS FOR THE TREATMENT OF PATHOLOGICAL PAIN AND ITCH” (DUKE UNIVERSITY, priority 2019, published 2022)

Columns and labels:
KCC2 mRNA [1] = test: KCC2 mRNA RT-qPCR in rat primary cortical neurons; assay type: cell-based; details: rat primary cortical neurons; dose-dependent, FIG. 10
Procedure: Total RNA was isolated from cultured cell samples using Directzol RNA miniprep kit (ZymoResearch). The protocol includes DNAse digestion to exclude genomic DNA from preparations. Total RNA (1 μg) was reverse transcribed using oligo primers (dT) and SuperScriptIII first-strand synthesis kit (Invitrogen). Gene expression was assessed by quantitative real-time PCR using 2×SYBR Green Master Mix (Qiagen) and a three-step cycling protocol (anneal at 60° C./elongate at 72° C., denature at 95° C.). Specificity of primers was verified by dissociation/melting curve for the amplicons when using SYBR Green as a detector. All reactions were performed in triplicates. The amount of target messenger RNA (mRNA) in the experimental group relative to that in the control was determined from the resulting fluorescence and threshold values (Ct) using the ΔΔCt method. βIII-tubulin was used as housekeeping gene. oligodT-initiated reverse transcription of 1 μg total RNA, DNA-se treated, was subjected to RT-qPCR using primers specific for KCC2 for rat and KCC2 for human sequences, normalized for neuronal βIII-tubulin, as previously described (Yeo et al., 2009, J Neurosci 29:14652-14662). For cultured neurons, total RNA was extracted from pelleted cells, and for spinal cord tissue it was extracted from microdissected lumbar spinal cord dorsal horn.

KCC2 mRNA [2] = test: KCC2 mRNA RT-qPCR in microdissected spinal cord dorsal horn; assay type: in vivo, mouse; details: AAV9 i.t; vs tdTomato control
Procedure: oligodT-initiated reverse transcription of 1 μg total RNA, DNA-se treated, was subjected to RT-qPCR using primers specific for KCC2 for rat and KCC2 for human sequences, normalized for neuronal βIII-tubulin, as previously described (Yeo et al., 2009, J Neurosci 29:14652-14662). For cultured neurons, total RNA was extracted from pelleted cells, and for spinal cord tissue it was extracted from microdissected lumbar spinal cord dorsal horn.
With the aforementioned findings and in view of the SCDH as the likely site of analgesic action of KP (Coull et al., 2003, Nature 424:938-942; Gagnon et al., 2013, Nat Med 19:1524-1528), SCDH KCC2 expression and function in nerve injury and response to KP was assessed. […] To measure KCC2 mRNA, SCDH Rexed-layers I-II were microdissected with laser capture followed by RT-qPCR. SCDH KCC2 protein expression was measured morphometrically after KCC2 immunolabeling using SCDH laminae I-II as the region-of-interest (FIG. 5B).

KCC2 mRNA [3] = test: KCC2 mRNA in differentiated N2a cells transfected with δ-cat constructs; assay type: cell-based, mouse; details: δ-cat construct vs control transfection
Source text: (§1) Plasmid containing human δ-catenin (CTNND2, NM_001288717) open reading frame was obtained from GeneCopeia (EX-A4285-M02) and cloned into pCMV-ENTER vector (Origene PS100001). Site-directed mutagenesis using Phusion DNA Polymerase enzyme (Thermofisher F549L) in conjunction with complementary primers bearing the specific mutation were used to generate the S276A […] mutation S276A. PCR was followed by Dpn1 enzyme digestion to remove parental plasmid DNA. All constructs were verified by sequencing. pCS-CMV-tdTomato plasmid was obtained from Addgene (cat. #30530).
Total RNA was isolated from cultured cell samples using Directzol RNA miniprep kit (ZymoResearch). The protocol includes DNAse digestion to exclude genomic DNA from preparations. […] Gene expression was assessed by quantitative real-time PCR using 2×SYBR Green Master Mix (Qiagen) and a three-step cycling protocol (anneal at 60° C./elongate at 72° C., denature at 95° C.). […] The amount of target messenger RNA (mRNA) in the experimental group relative to that in the control was determined from the resulting fluorescence and threshold values (Ct) using the ΔΔCt method. βIII-tubulin was used as housekeeping gene.
Next, the question of whether δ-cat, when expressed as a spinal transgene in sensory relay neurons, will facilitate analgesia in nerve constriction injury was assessed. […]

δ-cat = test: Nuclear transfer of transfected human δ-cat in N2a cells; assay type: cell-based, mouse; details: mutation vs δ-cat(WT), without KP
Source text: as §1
To investigate the relevance of δ-cat residue S276, N2a neural cells were studied because these cells transfect at higher efficiency than primary cortical neurons. In our cultures, N2a cells expressed neuronal ßIII-tubulin in elongated processes as determined by immune-labeling as an indicator of their neuronal differentiation. […] This increase in nuclear transfer was very similar to the trafficking we recorded in primary cortical neurons, thus validating the cell line. […] Of note, there was no increase of nuclear transfer of δ-cat(S276A) upon KP treatment (FIG. 8C and FIG. 8D).

nerve injury pain = test: Nerve constriction injury (PSNL) pain model, mechanical withdrawal; assay type: in vivo, mouse; details: AAV9-huSyn, 5×10^9 viral genomes i.t; vs tdTomato control; to d18
Procedure: For pain-related behavior, mechanical allodynia was assessed with von Frey filaments (Ugo Basile, Italy). The mice were placed on a 5×5-mm wire-mesh grid floor in individual compartments to avoid visual stimulation and allowed to adapt for 0.5 h prior to the von Frey test. The von Frey filament was then applied to the middle of the plantar surface of the hind paw with 5 g force. The withdrawal responses following the hind paw stimulation were measured at least three times, and the mechanical allodynia, which was defined as an increase in the number of withdrawal responses to the stimulation, was compared.
Thus, in vivo, KP functions as an analgesic when administered systemically in injury-related pain models.
Next, whether the analgesic effects of KP were mediated centrally at the spinal cord level was assessed.
Mechanical withdrawal was measured thresholds after nerve constriction injury (PSNL) (FIG. 12B and FIG. 12C). […] Thus, δ-cat(S276A) spinal transgenesis via AAV9 is sufficient to evoke analgesia after nerve constriction injury, to lesser degree also with δ-cat(WT). Importantly, δ-cat(S276A) spinal transgenesis was accompanied by increased expression of KCC2 in the SCDH. […] Moreover, our discovery points toward a genetically-encoded approach that can be developed for translation into clinical use as an alternative or complement to KP-related small molecules.

Compound | KCC2 mRNA expression (KCC2 mRNA [1]) | KCC2 mRNA in microdissected SCDH (KCC2 mRNA [2]) | KCC2 mRNA expression (KCC2 mRNA [3]) | nuclear transfer of the transfected construct (δ-cat) | mechanical withdrawal thresholds after PSNL (nerve injury pain)
O=C1[C@H](Cc2ccc(O)cc2)N2C(=O)CCN(C(=O)NCc3ccccc3)[C@H]2CN1Cc1cccc2ccccc12 [ICG-001] | significantly decreases |  |  |  | 
δ-cat(S276A): human δ-catenin S276A mutant transgene (SEQ ID NO:32), as plasmid or AAV9 vector driven by human synapsin promoter |  | significantly increased | slightly elevated | increases nuclear transfer | Significantly less sensitization
